Experimental data taken from EP0587374A2, “Sulfated sterol glycosides and their use against viral infections” (VIROSTAT (NA) NV, priority 1992, dated 1994).
Where two headings read alike, the source gives them in different places.

Columns and labels:
[1] = tested on: Peripheral blood lymphocytes; assay: In vitro cytotoxicity, Trypan Blue exclusion after 3 days of culture; conditions: 3 days, means of 4 counts
Protocol: Peripheral blood lymphocytes were prepared from normal blood. Cells were cultured for 3 days in complete medium [(RPMI, a commercially available so-called standard salt solution) + 10 % foetal calf serum (FCS) + […]] in the presence/absence of phytohemagglutinin (PHA). Duplicate wells were set up. Incubation was at 37°C and 5 % CO₂.
On the third day, cell viabilities were determined using the Trypan Blue exclusion test.
Those products which were water soluble, were made up at 8 mg/mℓ stocks in sterile distilled water and diluted 1:10 in RPMI medium and again diluted 1:10 directly in the wells containing the cells in complete medium. The final concentrations were thus 80 µg/mℓ. For the lower dilutions, the 8 mg/mℓ stock was diluted 1:2 or 1:4 or 1:8 in water before being diluted in the RPMI medium.
For those products which were DMSO-soluble, the stocks were made'up at 8 mg/mℓ in 100 % DMSO. This stock was diluted 1:10 in 100 % FCS and diluted 1:10 directly in the wells containing the cells in RPMI medium only. The final concentrations were thus 10 % FCS and 1 % DMSO. For the lower dilutions, the 8 mg/mℓ stock was diluted 1:2 or 1:4 or 1:8 with DMSO before the FCS dilution step.
This stock was diluted in water to yield a working stock of 2 mg/mℓ. The 2 mg/ml stock was diluted 1:20 or 1:10 or 1:5 or 1:2.5 in water and again 1:10 in the wells to give the 10, 20, 40 or 80 µg/mℓ final concentrations respectively.

[2] = test concentration 10 µg/mℓ, duration 6 days
[3] = test concentration 25 µg/mℓ, duration 6 days
[4] = test concentration 50 µg/mℓ, duration 6 days

## Cc1cn([C@H]2C[C@H](N=[N+]=[N-])[C@@H](CO)O2)c(=O)[nH]c1=O [AZT, reference compound]
HIV-1; concentration 10 ng/mℓ, test of Table 3
  inhibition of P24 protein production: 100%

## CC[C@H](CC[C@@H](C)[C@H]1CC[C@H]2[C@@H]3CC=C4C[C@@H](O)CC[C@]4(C)[C@H]3CC[C@]12C)C(C)C [BSS, β-Sitosterol, reference compound]
HIV-1; [2]
  % INHIBITION OF P24 PROTEIN PRODUCTION: 0%
HIV-1; test concentration 10 µg/mℓ, duration 6 days, listed as LL2
  % INHIBITION OF P24 PROTEIN PRODUCTION: no significant inhibition
[1]; Cells + PHA + 1.25 µg/mℓ
  % Viability: 89%
[1]; Cells + PHA + 2.5 µg/mℓ
  % Viability: 81%
[1]; Cells + PHA + 5 µg/mℓ
  % Viability: 92%
[1]; Cells + PHA + 10 µg/mℓ
  % Viability: 82%

## CC[C@H](CC[C@@H](C)[C@H]1CC[C@H]2[C@@H]3CC=C4C[C@@H](OS(=O)(=O)O)CC[C@]4(C)[C@H]3CC[C@]12C)C(C)C [BSS-SO₄⁻, β-Sitosteryl sulphate, reference compound]
HIV-1; [2]
  % INHIBITION OF P24 PROTEIN PRODUCTION: 0%
HIV-1; test concentration 10 µg/mℓ, duration 6 days, listed as LL1
  % INHIBITION OF P24 PROTEIN PRODUCTION: no significant inhibition

## CC[C@H](CC[C@@H](C)[C@H]1CC[C@H]2[C@@H]3CC=C4C[C@@H](O[C@@H]5O[C@H](CO)[C@@H](O)[C@H](O)[C@H]5O)CC[C@]4(C)[C@H]3CC[C@]12C)C(C)C [BSSG, β-Sitosteryl β-D-glucoside, reference compound]
HIV-1; [2]
  % INHIBITION OF P24 PROTEIN PRODUCTION: 0%
HIV-1; test concentration 10 µg/mℓ, duration 6 days, listed as LL4
  % INHIBITION OF P24 PROTEIN PRODUCTION: no significant inhibition

## CC(C)CCC[C@@H](C)[C@H]1CC[C@H]2[C@@H]3CC=C4C[C@@H](O)CC[C@]4(C)[C@H]3CC[C@]12C [CHO, Cholesterol, reference compound]
HIV-1; [2]
  % INHIBITION OF P24 PROTEIN PRODUCTION: 3%
HIV-1; test concentration 10 µg/mℓ, duration 6 days, listed as LL5
  % INHIBITION OF P24 PROTEIN PRODUCTION: no significant inhibition

## CC(C)CCC[C@@H](C)[C@H]1CC[C@H]2[C@@H]3CC=C4C[C@@H](OS(=O)(=O)O)CC[C@]4(C)[C@H]3CC[C@]12C [CHO-SO₄⁻, Cholesteryl sulphate, reference compound]
HIV-1; [2]
  % INHIBITION OF P24 PROTEIN PRODUCTION: 0%
HIV-1; test concentration 10 µg/mℓ, duration 6 days, listed as LL6
  % INHIBITION OF P24 PROTEIN PRODUCTION: no significant inhibition

## CC(C)CCC[C@@H](C)[C@H]1CC[C@H]2[C@@H]3CC=C4C[C@@H](O[C@@H]5O[C@H](COS(=O)(=O)[O-])[C@@H](OS(=O)(=O)[O-])[C@H](OS(=O)(=O)[O-])[C@H]5OS(=O)(=O)[O-])CC[C@]4(C)[C@H]3CC[C@]12C.[Na+].[Na+].[Na+].[Na+] [CHOG-(SO₄⁻)₄, Cholesteryl β-D-glucoside tetra-sulphate]
HIV-1; test concentration 12.5 µg/mℓ, duration 4 days
  % INHIBITION OF P24 PROTEIN PRODUCTION: 19%
HIV-1; test concentration 25 µg/mℓ, duration 4 days
  % INHIBITION OF P24 PROTEIN PRODUCTION: 18%
HIV-1; test concentration 50 µg/mℓ, duration 4 days
  % INHIBITION OF P24 PROTEIN PRODUCTION: 49%
HIV-1; test concentration 100 µg/mℓ, duration 4 days
  % INHIBITION OF P24 PROTEIN PRODUCTION: 86%

## C[C@@H]1CC[C@@]2(OC1)O[C@H]1C[C@H]3[C@@H]4CC=C5C[C@@H](O[C@@H]6O[C@H](COS(=O)(=O)[O-])[C@@H](OS(=O)(=O)[O-])[C@H](OS(=O)(=O)[O-])[C@H]6OS(=O)(=O)[O-])CC[C@]5(C)[C@H]4CC[C@]3(C)[C@H]1[C@@H]2C.[Na+].[Na+].[Na+].[Na+] [DG-(SO₄⁻)₄, Diosgenyl β-D-glucoside tetra-sulphate]
HIV-1; in terms of P24 protein production, Tables 1-3
  anti-HIV-1 effect (in words): marked anti-HIV-1 effects
HIV-1; [3]
  % INHIBITION OF P24 PROTEIN PRODUCTION: 60%
HIV-1; [4]
  % INHIBITION OF P24 PROTEIN PRODUCTION: 100%

## CCCCCCCCCCCCOS(=O)(=O)[O-].[Na+] [SODIUM n-DODECYL SULPHATE, reference compound]
HIV-1; [3]
  % INHIBITION OF P24 PROTEIN PRODUCTION: 0%
HIV-1; [4]
  % INHIBITION OF P24 PROTEIN PRODUCTION: 45%

## CCCCCCCCO[C@@H]1O[C@H](COS(=O)(=O)O)[C@@H](OS(=O)(=O)O)[C@H](OS(=O)(=O)O)[C@H]1OS(=O)(=O)O [n-OCTYL GLUCOSIDE TETRA-SULPHATE, reference compound]
HIV-1; [3]
  % INHIBITION OF P24 PROTEIN PRODUCTION: 0%
HIV-1; [4]
  % INHIBITION OF P24 PROTEIN PRODUCTION: 0%
